Measured values taken from patent publication US10479784B2, “Substituted pyrazin-2-amines as inhibitors of ATR kinase” (Vertex Pharmaceuticals Incorporated, priority 2008, dated 2019).

Biological target: full-length ATR (Homo sapiens (Human), UniProt Q13535)
Assay: ATR Inhibition Assay (radioactive-phosphate incorporation)
Format: biochemical
Details: read-out: ATR Ki
In short: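 Ki(app) was derived by non-linear regression of background-corrected initial rates of 33P incorporation into an 800 μM target peptide, read by phosphocellulose filter scintillation counting. Reaction conditions: 5 nM full-length ATR, 10 μM [γ-33P]ATP, pH 7.5 Tris buffer with MgCl2 and DTT, 25 °C, 10-min preincubation, 24 h run.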

full-length ATR, sequence (Q13535 whole entry): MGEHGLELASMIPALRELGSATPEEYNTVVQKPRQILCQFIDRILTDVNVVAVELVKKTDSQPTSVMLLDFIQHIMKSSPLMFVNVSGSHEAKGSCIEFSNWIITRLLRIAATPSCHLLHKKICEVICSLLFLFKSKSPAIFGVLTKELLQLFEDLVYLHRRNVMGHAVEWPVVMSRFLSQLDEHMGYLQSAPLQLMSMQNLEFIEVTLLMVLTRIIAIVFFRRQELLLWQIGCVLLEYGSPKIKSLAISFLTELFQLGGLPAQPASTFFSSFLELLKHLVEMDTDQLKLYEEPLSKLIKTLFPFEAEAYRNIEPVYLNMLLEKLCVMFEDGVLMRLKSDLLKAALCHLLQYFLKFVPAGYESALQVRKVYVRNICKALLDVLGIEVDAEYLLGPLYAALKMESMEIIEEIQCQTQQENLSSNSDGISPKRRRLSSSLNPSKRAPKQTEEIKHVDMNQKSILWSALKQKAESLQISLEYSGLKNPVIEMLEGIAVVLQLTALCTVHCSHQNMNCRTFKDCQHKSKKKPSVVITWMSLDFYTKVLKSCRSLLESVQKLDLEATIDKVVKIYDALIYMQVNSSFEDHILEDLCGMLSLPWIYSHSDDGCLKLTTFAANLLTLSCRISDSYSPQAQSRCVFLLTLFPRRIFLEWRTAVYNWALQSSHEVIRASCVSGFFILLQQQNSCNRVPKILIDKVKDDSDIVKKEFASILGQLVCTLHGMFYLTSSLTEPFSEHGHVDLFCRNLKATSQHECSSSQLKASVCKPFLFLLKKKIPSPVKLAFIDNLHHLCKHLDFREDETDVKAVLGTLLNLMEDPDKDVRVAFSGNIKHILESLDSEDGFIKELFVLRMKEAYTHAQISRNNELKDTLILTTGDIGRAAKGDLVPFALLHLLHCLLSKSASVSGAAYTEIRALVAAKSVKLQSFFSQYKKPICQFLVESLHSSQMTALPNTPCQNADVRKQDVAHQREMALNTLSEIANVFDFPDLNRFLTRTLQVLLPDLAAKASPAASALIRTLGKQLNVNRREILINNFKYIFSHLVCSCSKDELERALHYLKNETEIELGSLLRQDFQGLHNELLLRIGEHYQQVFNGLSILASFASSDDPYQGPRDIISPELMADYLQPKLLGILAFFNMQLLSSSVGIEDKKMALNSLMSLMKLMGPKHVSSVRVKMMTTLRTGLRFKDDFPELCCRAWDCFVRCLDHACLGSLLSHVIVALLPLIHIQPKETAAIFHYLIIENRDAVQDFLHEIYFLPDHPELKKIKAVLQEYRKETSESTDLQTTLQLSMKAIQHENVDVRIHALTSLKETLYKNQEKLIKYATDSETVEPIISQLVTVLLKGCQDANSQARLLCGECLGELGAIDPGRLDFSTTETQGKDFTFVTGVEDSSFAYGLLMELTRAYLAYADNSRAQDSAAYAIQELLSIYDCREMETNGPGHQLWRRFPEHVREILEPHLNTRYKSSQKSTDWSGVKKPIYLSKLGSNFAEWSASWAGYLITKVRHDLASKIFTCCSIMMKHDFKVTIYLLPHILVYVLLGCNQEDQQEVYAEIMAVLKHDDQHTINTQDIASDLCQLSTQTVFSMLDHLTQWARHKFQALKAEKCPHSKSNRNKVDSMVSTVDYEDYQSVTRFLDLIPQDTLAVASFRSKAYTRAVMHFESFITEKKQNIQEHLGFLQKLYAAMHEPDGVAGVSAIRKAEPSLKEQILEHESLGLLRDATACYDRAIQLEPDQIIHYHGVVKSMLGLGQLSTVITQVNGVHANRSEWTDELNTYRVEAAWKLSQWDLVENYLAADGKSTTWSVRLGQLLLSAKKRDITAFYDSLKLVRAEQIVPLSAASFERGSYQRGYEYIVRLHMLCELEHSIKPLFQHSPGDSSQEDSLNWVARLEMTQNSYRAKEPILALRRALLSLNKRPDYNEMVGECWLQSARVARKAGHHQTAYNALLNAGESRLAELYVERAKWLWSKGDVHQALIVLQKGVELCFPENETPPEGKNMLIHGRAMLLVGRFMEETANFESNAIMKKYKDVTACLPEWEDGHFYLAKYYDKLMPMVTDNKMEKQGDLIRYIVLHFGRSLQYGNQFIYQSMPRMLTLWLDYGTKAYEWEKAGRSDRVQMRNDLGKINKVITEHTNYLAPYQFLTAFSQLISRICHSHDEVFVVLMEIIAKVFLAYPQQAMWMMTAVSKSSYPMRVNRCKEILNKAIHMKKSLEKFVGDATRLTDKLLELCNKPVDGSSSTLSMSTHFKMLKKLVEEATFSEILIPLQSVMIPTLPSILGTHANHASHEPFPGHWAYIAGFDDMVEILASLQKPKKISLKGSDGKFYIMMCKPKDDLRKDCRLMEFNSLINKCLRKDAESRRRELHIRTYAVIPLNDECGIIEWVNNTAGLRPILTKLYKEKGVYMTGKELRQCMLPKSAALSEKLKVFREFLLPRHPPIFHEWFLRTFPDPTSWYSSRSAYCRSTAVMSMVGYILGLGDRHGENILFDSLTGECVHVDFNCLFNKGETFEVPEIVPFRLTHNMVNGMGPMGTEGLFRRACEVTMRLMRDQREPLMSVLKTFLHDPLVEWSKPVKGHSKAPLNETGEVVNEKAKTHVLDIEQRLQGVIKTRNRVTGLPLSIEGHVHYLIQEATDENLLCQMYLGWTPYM

Structure (SMILES) | Ki
NCC[S+]([O-])c1ccccc1-c1cnc(N)c(-c2nnc(-c3ccccc3)o2)n1 (stereo not drawn) [IA-261, 5-(2-(2-aminoethylsulfinyl)phenyl)-3-(5-phenyl-1,3,4-oxadiazol-2-yl)pyrazin-2-amine] | 10 to 100 nM
CN(C)C(=O)c1ccc(-c2cnc(N)c(-c3nnc(N4CCC4)o3)n2)cc1 [IA-192, 4-[5-amino-6-[5-(azetidin-1-yl)-1,3,4-oxadiazol-2-yl]pyrazin-2-yl]-N,N-dimethyl-benzamide] | 100 to 5000 nM
CNCc1ccc(-c2nnc(-c3nc(-c4ccc(S(=O)(=O)CCN(C)C)cc4)cnc3N)o2)cc1 [IA-289, 5-[4-(2-dimethylaminoethylsulfonyl)phenyl]-3-[5-[4-(methylaminomethyl)phenyl]-1,3,4-oxadiazol-2-yl]pyrazin-2-amine] | ≤ 10 nM
CNCc1ccc(-c2nnc(-c3nc(-c4ccc(S(=O)(=O)C(C)C)nc4)cnc3N)o2)cc1 [IA-303, 5-(6-isopropylsulfonyl-3-pyridyl)-3-[5-[4-(methylaminomethyl)phenyl]-1,3,4-oxadiazol-2-yl]pyrazin-2-amine] | ≤ 10 nM
CCCNCc1ccc(-c2cc(-c3nc(-c4ccc(S(=O)(=O)C(C)C)cc4)cnc3N)on2)cc1 [IIA-6, 5-(4-(isopropylsulfonyl)phenyl)-3-(3-(4-((propylamino)methyl)phenyl)isoxazol-5-yl)pyrazin-2-amine] | ≤ 10 nM
CC(C)S(=O)(=O)c1ccc(-c2cnc(N)c(-c3nnc(NCCCN)o3)n2)cc1 [IA-97, N-[5-[3-amino-6-(4-isopropylsulfonylphenyl)pyrazin-2-yl]-1,3,4-oxadiazol-2-yl]propane-1,3-diamine] | 10 to 100 nM
CC(C)S(=O)(=O)c1ccc(-c2cnc(N)c(-c3nnc(-c4cccc(C#N)c4)o3)n2)cc1 [IA-187, 3-[5-[3-amino-6-(4-isopropylsulfonylphenyl)pyrazin-2-yl]-1,3,4-oxadiazol-2-yl]benzonitrile] | 10 to 100 nM
CNCc1ccc(-c2nnc(-c3nc(-c4ccc(S(=O)(=O)C(C)C)c(C#N)c4)cnc3N)o2)cc1 [IA-295, 5-[5-amino-6-[5-[4-(methylaminomethyl)phenyl]-1,3,4-oxadiazol-2-yl]pyrazin-2-yl]-2-isopropylsulfonyl-benzonitrile] | ≤ 10 nM
CNCc1ccc(-c2nnc(-c3nc(-c4ccc(S(=O)(=O)C(C)CCO)cc4)cnc3N)o2)c(F)c1 (stereo not drawn) [IA-342, 3-[4-[5-amino-6-[5-[2-fluoro-4-(methylaminomethyl)phenyl]-1,3,4-oxadiazol-2-yl]pyrazin-2-yl]phenyl]sulfonylbutan-1-ol] | ≤ 10 nM
Nc1ncc(-c2ccc(C(=O)N3CCC(O)C3)cc2)nc1C(=O)Nc1ccccc1 (stereo not drawn) [Compound I-75, 3-amino-6-(4-(3-hydroxypyrrolidine-1-carbonyl)phenyl)-N-phenylpyrazine-2-carboxamide] | 10 to 100 nM
CN(C)C(=O)c1ccc(-c2cnc(N)c(-c3nnc(-c4ccco4)o3)n2)cc1 [IA-115, 4-[5-amino-6-[5-(2-furyl)-1,3,4-oxadiazol-2-yl]pyrazin-2-yl]-N,N-dimethyl-benzamide] | 10 to 100 nM
CC(C)Sc1ccccc1-c1cnc(N)c(-c2nnc(-c3ccccc3)o2)n1 [IA-229, 5-(2-isopropylsulfanylphenyl)-3-(5-phenyl-1,3,4-oxadiazol-2-yl)pyrazin-2-amine] | 100 to 5000 nM
COC(=O)c1ccc2nc(-c3nc(-c4ccc(S(C)(=O)=O)cc4)cnc3N)[nH]c2c1 [Compound I-116, methyl 2-(3-amino-6-(4-(methylsulfonyl)phenyl)pyrazin-2-yl)-1H-benzo[d]imidazole-6-carboxylate] | 100 to 5000 nM
CS(=O)(=O)Nc1cccc(-c2cnc(N)c(-c3nnc(-c4ccccc4)o3)n2)c1 [IA-144, N-[3-[5-amino-6-(5-phenyl-1,3,4-oxadiazol-2-yl)pyrazin-2-yl]phenyl]methanesulfonamide] | 10 to 100 nM
CC(C)S(=O)(=O)c1ccc(-c2cnc(N)c(-c3nnc(-c4ccccc4)o3)n2)c(C#N)c1 [IA-132, 2-[5-amino-6-(5-phenyl-1,3,4-oxadiazol-2-yl)pyrazin-2-yl]-5-isopropylsulfonyl-benzonitrile] | ≤ 10 nM
